A short description of series [1]: MTS assay. The settings on record: human, CEMx174 cells (T-B hybridoma).
Series [2] can be described thus: MTS assay. The settings on record: African green monkey, Vero cells. (Formazan colour is commonly taken as a measure of viable cells.)
A short description of series [3]: MTS assay. The settings on record: human, HeLa cells.
The nature of series [4]: MTS assay. The settings on record: human, DP-9 cells (foreskin fibroblast).
Series [5] in a line: MTS assay. The settings on record: African green monkey, CV-1PD cells (kidney).
A short description of series [6]: MTS assay. The settings on record: human, W12E cells (cervical carcinoma cell line).
A short description of series [7]: MTS assay. The settings on record: human, NIKS cells (normal immortalized keratinocytes).
The nature of series [8]: MTS assay. Conditions: human, TM-1 cells (trabecular meshwork).
Series [9] deals with Vero, HeLa, CV-1PD, TM-1, DP-9, CEMx174, NIKS, W12E cells. Kind of series: MTS assay, eight cell lines. The settings on record: eight cell lines.
The test system of a further series is vagina. The settings on record: mouse, in vivo.

Peptide text beside a SMILES is read from it. * marks the point of attachment. Biotin = O=C1N[C@H]2[C@H](CS[C@H]2CCCCC(=O)*)N1; Ahx = NCCCCCC(=O)O

With `CC[C@H](C)[C@H](NC(=O)[C@H](CCCCN)NC(=O)[C@@H](NC(=O)[C@H](CCC(N)=O)NC(=O)[C@H](CCCNC(=N)N)NC(=O)CCCCCNC(=O)CCCC[C@@H]1SC[C@@H]2NC(=O)N[C@@H]21)[C@@H](C)CC)C(=O)N[C@@H](Cc1c[nH]c2ccccc12)C(=O)N[C@@H](Cc1ccccc1)C(=O)N1CCC[C@H]1C(=O)N[C@@H](CC(N)=O)C(=O)N[C@@H](CCCNC(=N)N)C(=O)N[C@@H](CCCNC(=N)N)C(=O)N[C@@H](CCSC)C(=O)N[C@@H](CCCCN)C(=O)N[C@@H](Cc1c[nH]c2ccccc12)C(=O)N[C@@H](CCCCN)C(=O)N[C@@H](CCCCN)C(N)=O` [bHOM] ({Biotin-Ahx}-RQIKIWFPNRRMKWKK-NH2; N-terminus and C-terminus assumed), the EC50 in the series “MTS assay [1]” was 50 µM; in the series “MTS assay [2]” it was 75 µM; in the series “MTS assay [3]” it was 100 µM; in the series “MTS assay [4]”, 150 µM; in the series “MTS assay [5]” it was 180 µM; in “MTS assay [6]” it was over 200 µM. Further, the EC50 in the series “MTS assay [7]” and in “MTS assay [8]” was over 200 µM throughout. For the same compound, in [9], the “cytotoxicity to cells (MTS), overall” value was “generally not cytotoxic”.

With nonoxynol-9 [N−9], the “effect on vaginal tissues (H&E sections)” value with vagina is given as “No differences in the appearance of the tissues”.

What is called EC50 is the concentration needed to bring the measured effect to its halfway point. Low values mean greater potency, high ones weaker potency.

Source of the values: patent publication US7432045B2 (priority 2003, dated 2008).
